Assays:
[1] = system: methicillin-resistant S. aureus MRSA-1; experiment: Antimicrobial activity, serial dilution technique in Mueller–Hinton Broth 2; format: cell-based, Staphylococcus aureus; details: - means non-active; for Minimum Inhibitory Concentration (MIC), MRSA-1: MRSA-1 (resistant to fluoroquinolones and beta-lactams)
Method: (§1) The synthesized compounds were tested for antimicrobial activity against a number of Gram-positive bacteria, Staphylococcus aureus (Sa), Bacillus cereus (Bc) and Enterococcus faecalis (Ef), and Gram-negative bacteria, Escherichia coli (Ec) and Pseudomonas aeruginosa (Pa), including the methicillin-resistant strains S. aureus MRSA-1 (resistant to fluoroquinolones and beta-lactams) and MRSA-2 (resistant to beta-lactams). The methicillin-resistant strains S. aureus were transferred by the Republican Clinical Hospital of the Republic of Tatarstan (Kazan). The fungicidal activity against Candida albicans (Ca) and Trichophyton mentagrophytes var. gypseum (Tm) was studied. These pathogens were chosen because they are the most widespread in the food industry and the healthcare system.
(§2) The antimicrobial activity of the QPSs was determined using the serial dilution technique in Mueller–Hinton Broth 2. The cultures used for testing included the Gram-positive bacteria Staphylococcus aureus ATCC 6538P FDA 209P, Enterococcus faecalis ATCC 2921 and Bacillus cereus ATCC 10702 NCTC 8035, the Gram-negative bacteria Escherichia coli ATCC 25922 and Pseudomonas aeruginosa ATCC 9027, and the fungi Trichophyton mentagrophytes var. gypseum 1773 and Candida albicans ATCC 10231; methicillin-resistant strains of S. aureus MRSA were obtained from hospital patients with chronic tonsillitis (MRSA-1) and sinusitis (MRSA-2) in the Republican Clinical Hospital (Kazan, Russia). […] The bacterial load was 3.0 × 10^5 cfu/mL. The results were recorded every 24 h for 5 days. The cultures were incubated at 37 °C. The experiment was repeated three times. […] The minimum inhibitory concentration (MIC) was defined as the minimum concentration of a compound that inhibits the growth of the corresponding test micro-organism. The growth of bacteria as well as the absence of growth due to the bacteriostatic action of a compound was recorded.

[2] = system: methicillin-resistant S. aureus MRSA-2; experiment: as above; format: cell-based, Staphylococcus aureus; details: - means non-active; for Minimum Inhibitory Concentration (MIC), MRSA-2: MRSA-2 (resistant to beta-lactams)
Method: as §1, §2

[3] = system: Escherichia coli ATCC 25922; experiment: as above; format: cell-based; details: Ec; average of three ± SD; - means non-active
[4] = system: Bacillus cereus ATCC 10702 NCTC 8035; experiment: as above; format: cell-based; details: average of three ± SD, - means non-active
Method: as §1, §2

[5] = system: Staphylococcus aureus ATCC 6538P FDA 209P; experiment: as above; format: cell-based; details: average of three ± SD, - means non-active
Method: as §1, §2

[6] = system: Escherichia coli ATCC 25922; experiment: as above; format: cell-based; details: average of three ± SD, - means non-active
Method: as §1, §2

[7] = system: Pseudomonas aeruginosa ATCC 9027; experiment: as above; format: cell-based; details: average of three ± SD, - means non-active
Method: as §1, §2

[8] = system: Enterococcus faecalis ATCC 2921; experiment: as above; format: cell-based; details: Ef; average of three ± SD; - means non-active
Method: as §1, §2

[9] = system: Trichophyton mentagrophytes var. gypseum 1773; experiment: Fungicidal activity, serial dilution technique; format: cell-based; details: Tm, average of three ± SD, - means non-active
Method: as §1
(§3) The antimicrobial activity of the QPSs was determined using the serial dilution technique in Mueller–Hinton Broth 2. The cultures used for testing included the Gram-positive bacteria Staphylococcus aureus ATCC 6538P FDA 209P, Enterococcus faecalis ATCC 2921 and Bacillus cereus ATCC 10702 NCTC 8035, the Gram-negative bacteria Escherichia coli ATCC 25922 and Pseudomonas aeruginosa ATCC 9027, and the fungi Trichophyton mentagrophytes var. gypseum 1773 and Candida albicans ATCC 10231; methicillin-resistant strains of S. aureus MRSA were obtained from hospital patients with chronic tonsillitis (MRSA-1) and sinusitis (MRSA-2) in the Republican Clinical Hospital (Kazan, Russia). Ciprofloxacin and ketoconazole were purchased from Sigma-Aldrich. The bacterial load was 3.0 × 10^5 cfu/mL. The results were recorded every 24 h for 5 days. The cultures were incubated at 37 °C. The experiment was repeated three times. […] The minimum inhibitory concentration (MIC) was defined as the minimum concentration of a compound that inhibits the growth of the corresponding test micro-organism. The growth of bacteria as well as the absence of growth due to the bacteriostatic action of a compound was recorded.

[10] = system: Candida albicans ATCC 10231; experiment: Fungicidal activity, serial dilution technique; format: cell-based; details: average of three ± SD, - means non-active
Method: as §1, §3

Minimum Inhibitory Concentration (MIC), MRSA-1 [1] | Minimum Inhibitory Concentration (MIC), MRSA-2 [2] | Minimum Inhibitory Concentration (MIC), Bc [4] | Minimum Inhibitory Concentration (MIC), Sa [5] | Minimum Inhibitory Concentration (MIC), Ef [8] | Minimum Inhibitory Concentration (MIC), Ec [6] | SMILES | Minimum Bactericidal and Fungicidal Concentration (MBC, MFC), MRSA-2 [2] | Minimum Bactericidal and Fungicidal Concentration (MBC, MFC), Ec [3] | Minimum Bactericidal and Fungicidal Concentration (MBC, MFC), Bc [4] | Minimum Bactericidal and Fungicidal Concentration (MBC, MFC), Sa [5] | Minimum Bactericidal and Fungicidal Concentration (MBC, MFC), Ef [8] | Minimum Bactericidal and Fungicidal Concentration (MBC, MFC), Ca [10] | Minimum Inhibitory Concentration (MIC), Ca [10] | Minimum Bactericidal and Fungicidal Concentration (MBC, MFC), MRSA-1 ([1]; MRSA-1) | Minimum Bactericidal and Fungicidal Concentration (MBC, MFC), Tm [9] | Minimum Inhibitory Concentration (MIC), Tm [9] | other results
0.9 ± 0.07 µg/mL | 0.9 ± 0.07 µg/mL | 7.8 ± 0.6 µg/mL | 0.9 ± 0.08 µg/mL | 0.9 ± 0.07 µg/mL | – | CCCCCCCCCCCCCCCCCC[P+](C(C)(C)C)(C(C)(C)C)C(C)(C)C [Compound 18a] | 0.9 ± 0.07 µg/mL | 15.6 ± 1.1 µg/mL | 31.3 ± 2.5 µg/mL | 0.9 ± 0.07 µg/mL | 0.9 ± 0.07 µg/mL | 3.9 ± 0.2 µg/mL | 1.9 ± 0.1 µg/mL | – | – | – | MBC ([1]; Staphylococcus aureus, MRSA, MRSA-1, read-out: Minimum Bactericidal and Fungicidal Concentration (MBC, MFC), MRSA-1): 15.6 ± 1.2 µg/mL; MIC ([6]; Escherichia coli, ATCC25922, Ec, read-out: Minimum Inhibitory Concentration (MIC), Ec): 15.6 ± 1.3 µg/mL; MBC ([7]; Pseudomonas aeruginosa, ATCC9027, Pa, read-out: Minimum Bactericidal and Fungicidal Concentration (MBC, MFC), Pa): 62.5 ± 5.6 µg/mL; MIC ([7]; Pseudomonas aeruginosa, ATCC9027, Pa, read-out: Minimum Inhibitory Concentration (MIC), Pa): 15.6 ± 1.2 µg/mL; MBC ([9]; Trichophyton mentagrophytes, read-out: Minimum Bactericidal and Fungicidal Concentration (MBC, MFC), Tm): 125 ± 9 µg/mL; MIC ([9]; Trichophyton mentagrophytes, read-out: Minimum Inhibitory Concentration (MIC), Tm): 125 ± 11 µg/mL
0.3 ± 0.02 µg/mL | 0.5 ± 0.04 µg/mL | 1.9 ± 0.1 µg/mL | 0.9 ± 0.07 µg/mL | 7.8 ± 0.6 µg/mL | 62.5 ± 5.3 µg/mL | CCCCCCCCCCC[P+](C(C)(C)C)(C(C)(C)C)C(C)(C)C [Compound 11b] | 0.9 ± 0.07 µg/mL | 62.5 ± 5.4 µg/mL | 125 ± 10 µg/mL | 3.9 ± 0.2 µg/mL | 15.6 ± 1.2 µg/mL | 31.3 ± 2.1 µg/mL | 31.3 ± 2.4 µg/mL | 0.5 ± 0.03 µg/mL | 125 ± 9 µg/mL | 125 ± 9 µg/mL | –
1.9 ± 0.1 µg/mL | 1.9 ± 0.1 µg/mL | 1.9 ± 0.1 µg/mL | 0.5 ± 0.04 µg/mL | 0.5 ± 0.03 µg/mL | 15.6 ± 1.2 µg/mL | CCCCCCCCCCCCCCCCC[P+](C(C)(C)C)(C(C)(C)C)C(C)(C)C [Compound 17b] | 1.9 ± 0.1 µg/mL | – | 15.6 ± 1.3 µg/mL | 0.5 ± 0.04 µg/mL | 3.9 ± 0.2 µg/mL | – | 1.9 ± 0.1 µg/mL | 1.9 ± 0.1 µg/mL | 125 ± 11 µg/mL | 125 ± 10 µg/mL | Minimum Bactericidal and Fungicidal Concentration (MBC, MFC), Pa ([7]; Pa): 15.6 ± 1.3 µg/mL; Minimum Inhibitory Concentration (MIC), Pa ([7]; Pa): 7.8 ± 0.6 µg/mL; MFC ([10]; Candida albicans, ATCC10231, Ca, read-out: Minimum Bactericidal and Fungicidal Concentration (MBC, MFC), Ca): 7.8 ± 0.7 µg/mL
